The record followed here is patent publication EP0979243B1, “ACTIVATION OF PEPTIDES” (Anmat Technology Limited, priority 1997, dated 2006).

The format of this series is biochemical. The procedure:
As an example of particulates for use in drug-delivery or diagnostic assay,liposomes encapsulating Calcein (Sigma) dye were prepared by the extrusion method of Biochim. Biophys. Acta (1985) 812; 55. Specifically, Phosphotidylcholine (12mg) and cholesterol (2mg) were evaporated to form a lipid film in a round bottom flask. The film was hydrated with 2ml of 120mM Calcein in 10mM sodium phosphate/120mM Sodium chloride buffer of pH 7.4. Liposomes were then prepared by ten times extrusion through a 0.2 micron polycarbonate filter using the reported method. Any non-encapsulated dye was removed by gel filtration on a PD-10 column.
In a typical assay a 2ml buffer containing a known concentration (depending on the activity) of a peptide prepared as in Example 1 is treated with 3µl liposomes prepared as in Example 2. The progress of dye leakage from the liposomes indicates release of the marker and is followed by recording an increase in fluorescence signal. The assay can be repeated in the presence of a binder. Where Calcein is used as the dye excitation and emission wavelengths of 490nm and 520nm were used. […]. The concentration of binder required to fully bind the peptide can be evaluated using series of binder concentration at fixed peptide concentrations or vice versa. […]

Turning to `CC[C@H](C)[C@H](NC(=O)CNC(C)=O)C(=O)NCC(=O)N[C@@H](C)C(=O)N[C@H](C(=O)N[C@@H](CC(C)C)C(=O)N[C@@H](CCCNC(=N)N)C(=O)N[C@H](C(=O)N[C@@H](CC(C)C)C(=O)N[C@H](C(=O)N[C@H](C(=O)NCC(=O)N[C@@H](CCCCNC(=O)CCCC[C@@H]1SC[C@@H]2NC(=O)N[C@@H]21)C(=O)N1CCC[C@H]1C(=O)N[C@@H](C)C(=O)N[C@@H](CC(C)C)C(=O)N[C@H](C(=O)N[C@@H](CO)C(=O)N[C@@H](Cc1c[nH]c2ccccc12)C(=O)N[C@H](C(=O)N[C@@H](CCCNC(=N)N)C(=O)N[C@@H](CCCNC(=N)N)C(=O)N[C@@H](CCCNC(=N)N)C(=O)N[C@@H](CCCNC(=N)N)C(=O)N[C@@H](CCC(N)=O)C(=O)N[C@@H](CCC(N)=O)C(N)=O)[C@@H](C)CC)[C@@H](C)CC)[C@@H](C)O)[C@@H](C)O)C(C)C)C(C)C` [biotin modified peptide of example 1b], under “Figure 4A, under 2hrs, avidin and liposomes in 2ml buffer”, the “stability of integrated system (single reagent) in the inactive form” value was “very stable with little or no leakage of the contents”. For the setting “Figure 4B, under 17hrs, nitroavidin and liposomes in 2ml buffer, biotin added at point X”, the “stability and activation of integrated system” value is “stable and activated specifically with ligand”.
